Measurements: US20230416247A1, “DRUG-LIKE MOLECULES AND METHODS FOR THE THERAPEUTIC TARGETING OF MICRORNA-21” (University of Washington, priority 2020, published 2023)

Tested on: mature miR-21 in HeLa cells
Assay: qRT-PCR of mature miR-21 in HeLa cells
Assay type: cell-based
Experimental: FIGS. 12A and 12B compare levels of mature miR-21 in HeLa cells, as measured by standard qRT-PCR after 5 days of incubation in the presence of palbociclib and compounds −0045 (sm1), −0050 (sm3) and −0052 (sm5) (FIG. 12A); and levels of mature miR-21 in HeLa cells were measured by qRT-PCR after 4 days of incubation in the presence of palbociclib (a control) and compounds −0045 (sm1), −0050 (sm3) and −0052 (sm5) (FIG. 12B), normalized to miR-21 levels in the absence of any compound. […] The two panels represent independent duplicates of the same experiment.
HeLa cells have relatively high levels of miR-21, and this cell line was used to evaluate whether addition of the molecules would decrease levels of mature miR-21, as expected for inhibition of miR-21 processing. […] In contrast, compounds −0045, −50 and −52, induce an approximately 20% percent decline in levels of mature miR-21 (FIGS. 12A and 12B; the comparison of FIG. 12A and FIG. 12B provides an indication in the uncertainty of the data). miR-21 is very long lived, with a lifetime of approximately 5 days. […] Similar results were obtained at higher numbers of cells/plate (200 k vs at the start of the experiment), but the experiment could not be extended beyond 2 days because of the very high cell density reached. The observed trends were nonetheless in agreement with the experiments conducted at lower cell density.

| Compound | increase in levels of miR-21 (days 4 and 5 of incubation, 20 k vs 200 k cells/plate, normalized to no compound) | decline in levels of mature miR-21 (days 4 and 5 of incubation, normalized to no compound) | reduction of all newly synthesized miR-21 (worked out from the 20% decrease and miR-21 lifetime of approximately 5 days) |
| --- | --- | --- | --- |
| CC(=O)c1c(C)c2cnc(Nc3ccc(N4CCNCC4)cn3)nc2n(C2CCCC2)c1=O [Palbociclib, reference compound] | 10-20% | – | – |
| O=c1[nH]c(Nc2ccc(N3CCNCC3)cn2)nc2ccncc12 [−0050] | – | approximately 20% | about 60% |
